# Assay: Degreasing effect on a soiled white painted metal plate (non-mechanical cleaning)
# Settings: 1:40 dilution in water, poured over painted metal plate soiled with train engine grease, rinsed with tap water
# Method: The degreasing effect of the test formulations was assessed on a white painted metal plate soiled uniformly with a tough-to-clean greasy soil collected from a train engine. The cleaning formulation (1:40 dilution in water) was applied simply by pouring it over the surface (non-mechanical cleaning). After a short time interval, the whole plate was rinsed with tap water and cleaning performance was assessed quantitatively. The results are tabulated below and depicted in FIG. 1A (for the respective cleaning formulations A, B, and C containing no NaOH) and FIG. 1B. (for the respective cleaning formulations D, E, and F containing 2% NaOH).
substance,measurement,value
C12/14 alkyl methylamine ethoxylate N-Oxide,Cleaning Performance,performs as well as the comparison hydrotrope

# Reference: patent publication US20250382549A1, “MULTIFUNCTIONAL N-OXIDE HYDROTROPES, CLEANING FORMULATIONS CONTAINING THEM AND USE THEREOF” (NOURYON CHEMICALS INTERNATIONAL B.V., priority 2022, published 2025)
